Several values for one entry are separate records, joined by “and”; a condition that tells them apart may be missing. Equal values may be shown once.
How the values were obtained:
[1] = Solubility of the toxicant in fatty acids and edible fats and oils; format: physicochemical
[2] = tested on: Phosphate resistant 2-spotted spider mite (Tetranychus urticae); assay: Screening: Mite test; format: in vivo; conditions: 300 ppm
Procedure: Mite: Phosphate resistant 2-spotted spider mite
(Tetranychus urticae), adults, eggs, nymphs.
Test: Screening: Mite test.
(§1) Formulation: 50:50 acetone:water
Plant Preparation: Sieva lima bean plants with primary leaves 7-8 cm long are selected and cut back to one plant per pot. A small piece is cut off of a leaf taken from the main mite colony and placed on each leaf of the test plants. This is done about 1-3 hours before use to allow the mites to move over to the test plant and lay eggs before treatment. The size of the piece cut is varied to try to obtain about 100 mites per leaf.
Mite Preparation: See above.
Test Procedure: The piece of leaf used to transfer mites is removed and discarded. The mite-infested plant is dipped in the test formulation for 3 seconds with agitation, and the plant set in the hood to dry.
Holding Conditions: The plants are held for 2 days at 27° C. for the first observation, and the second leaf is kept on the plant for another 5 days for the final observation.
Observations: After 2 days one leaf is removed and examined under a 10×microscope to determine the mortality of the adult mites. The second leaf is examined similarly 7 days after treatment to observe the kill of eggs and of newly hatched nymphs giving a measure of ovicidal and residual action, respectively. Any evidence of phytotoxicity from the test treatment is noted. The standard rating system of 0-9 is used to record the mite data.

[3] = Determination of Solubility in Soybean Oil (HPLC of oil phase after equilibration); format: physicochemical; conditions: for % Salt in Oil Layer / % Amidino Hydrazone in Oil Layer (w/w), Average: 25° C.; for % Salt in Oil Layer: footnote * formula (drawing 4); for % Amidino Hydrazone in Oil Layer (w/w), Average: average of duplicates; for % Amidino Hydrazone in Oil Layer (w/w): individual duplicate, equilibrated at 100° C. 4 hours, cooled to 25° C.
Procedure: Each salt of example 1 was equilibrated with approximately 3/8 its weight of soybean oil at 100° C. for 4 hours with ultrasonic agitation. The resulting mixtures were centrifuged while hot and allowed to cool to room temperature (25° C.). […] Duplicate samples of the oil phases were analyzed by solution in methylene chloride and quantitation by HPLC.

[4] = tested on: Tobacco budworm (Heliothis virescens), egg; assay: Screening, TBW egg test (tobacco budworm eggs); format: in vivo; conditions: 300 ppm
From the text: Insect: Tobacco budworm (Heliothis virescens), egg
Test: Screening, TBW egg test.
(§2) Formulation: 50:50 acetone:water.
Concentrations: Screening: 300, 100, 10, 1 ppm.
(§3) Plant Preparation: Cotton plants are selected to give plants with the first true leaf expanded to about 6-7 cm in length.
Insect Preparation: Eggs are collected on cheesecloth used as the lid for the moth oviposition chamber in the rearing colony. This cloth is cut into 10-20 mm squares containing about 50-100 budworm eggs laid within the past day. Thus, eggs are 6-30 hours old when used in the test.
Test Procedures: The cotton plant is dipped in the test formulation and agitated for 3 seconds. A square of cheesecloth with eggs is also dipped in the test formulation, placed on the treated leaf and the combination placed in the hood to air dry. When dry, the leaf and egg cloth are removed from the plant, and placed in an "8-ounce Dixie cup (240 ml. 6 cm high, top diameter 9.5 cm. bottom diameter 8 cm)," to which a 5 cm length of damp cotton dental wick had been previously added. A clear plastic lid is placed on the cup.
Holding Conditions: The cups are held at 27° C. until the eggs hatch, which occurs in about 2 days.
Observations: Kill of eggs. This may require the use of a low-power microscope to determine if the lack of visible mobile caterpillars is due to lack of egg hatch or due to the newly hatched caterpillars dying on the leaf under and near the cheesecloth. The standard rating system of 0-9 is used to record the results.

[5] = tested on: Southern armyworm (Spodoptera eridania), 3rd instar; assay: Screening: Southern armyworm larva; format: in vivo
Procedure: Insect: Southern armyworm (Spodoptera eridania). 3rd instar.
Test: Screening: Southern armyworm larva.
Formulation: 2:1 acetone:water.
Plant Preparation: Sieva lima bean plants are selected with primary leaves 7-8 cm long and cut back to one plant per pot.
Insect Preparation: A 100×10 mm petri dish is prepared by putting a damp filter paper in the bottom and ten 3rd instar larvae are added. These are about 10 mm long.
Test Procedure: The bean plant is dipped for 3 seconds with agitation in the test formulation and placed in the hood to dry. One leaf is removed from the plant and placed in the petri dish with the caterpillars.
Holding Conditions: The dish is held at 27° C. The plant with the remaining leaf is held in the greenhouse under high intensity lights.
Observations: Mortality counts are made after 2 days and recorded using the standard 0-9 rating system.

[6] = tested on: Tobacco budworm (Heliothis vireacens), 1st instar; assay: Screening, TBW 1st instar test; format: in vivo
Procedure: Insect: Tobacco budworm (Heliothis vireacens), 1st instar.
Test: Screening, TBW 1st instar test.
as §1
Concentrations: Screening: 300, 100, 10, 1 ppm
as §3
Insect Preparation: Cheesecloth on which moths have oviposited is daily cut into 10-20 mm squares containing 50-100 eggs each. These squares are held at 21° C. for 2 days and 24° C. for another day in order to coordinate hatch with testing times. Thus, the larvae are 0-2 hours old at time of use.
Test Procedure: The cotton plant is dipped in the test formulation, agitated for 3 seconds, and placed in the hood to air dry. When dry, the leaf is removed from the plant and placed in an "8-ounce Dixie cup (240 ml, 6 cm high, top diameter 9.5 cm, bottom diameter (8 cm)" to which a 5 cm length of damp cotton dental wick had been previously added. A square of cheesecloth with newly hatched budworm larvae on it is placed on the treated leaf and a clear plastic lid is put on the cup.
Holding Conditions: The cups are held at 27° C. for 2 days.
Observations: Kill of larvae. This may require the use of a low-power microscope to determine if the worms are dead or just not feeding. Observation of amount of feeding is also recorded. Where there is only trace to light feeding, the cup is held an extra day and results recorded at that time. The standard rating system of 0-9 is used.

[7] = tested on: Bean aphid (Aphis fabae), mixed stages; assay: Screening: bean aphid test; format: in vivo; conditions: 100 ppm
Procedure: Insect: Bean aphid (Aphis fabae), mixed stages.
Test: Screening: bean aphid test
as §2
Plant Preparation: 5 cm pots each containing a nasturtium plant about 5 cm tall are infested with 100 to 400 aphids 2-4 days before the test.
Insect Preparation: See above.
Test Procedure: The pot of aphids is sprayed for 2 revolutions of a 4 rpm turntable in the hood, using a #154 DeVilbiss atomizer at 1500 kg/m^2 pressure. The spray tip is held about 15 cm from the plant and the spray directed so as to give complete coverage of the aphid and the plants. The sprayed plants are laid on their sides on white enamel trays measuring 24×34 cm.
Holding Conditions: Trays of sprayed pots are held at 27° C. for 1 day.
Observations: Mortality estimates are made and data recorded with the standard […] rating system.
NOTE: For LD50 determinations, a clean tray 24×34 cm is ruled off into a grid with 3 cm spacing and the live aphids gently brushed off the plant onto the gridded tray. This makes it easier to make an exact count of the number of aphids on the plant. Dead aphids, which fall off the plant onto the tray, are counted where they fall, since they stick to the tray and cannot be brushed onto a gridded tray for counting.

[8] = listed as Amidino Hydrazone Salt Of Stearic Acid
[9] = listed as Amidino Hydrazone Salt Of Linoleic Acid
[10] = listed as Amidino Hydrazone Salt Of Linolenic Acid
[11] = listed as Amidino Hydrazone Salt Of Oleic Acid

| SMILES | P-res. Mites control rating [2] | Budworm Eggs control rating [4] | 3rd Instar Armyworms control rating ([5]; 10 ppm) | 3rd Instar Armyworms control rating ([5]; 100 ppm) | 3rd Instar Armyworms control rating ([5]; 1000 ppm) | 1st Instar Tobacco Budworms control rating ([6]; 10 ppm) | 1st Instar Tobacco Budworms control rating ([6]; 100 ppm) | 1st Instar Tobacco Budworms control rating ([6]; 300 ppm) | Aphids control rating [7] | also measured |
| --- | --- | --- | --- | --- | --- | --- | --- | --- | --- | --- |
| CC1(C)CN=C(NN=C(C=Cc2ccc(C(F)(F)F)cc2)C=Cc2ccc(C(F)(F)F)cc2)NC1 [Amidino Hydrazone, 1,5-bis(alpha,alpha,alpha-trifluoro-p-tolyl)-1,4-pentadien-3-one (1,4,5,6-tetrahydro-5,5-dimethyl-2-pyrimidinyl)hydrazone] | – | – | – | – | – | – | – | – | – | solubility in edible fats and oils attractive to fire ants ([1]; edible fats and oils as solvents for the toxicant): not very good solvents; solubility in fatty acids ([1]; oleic, linoleic, linolenic, stearic acid and mixtures): readily soluble |
| CC1(C)CN=C(NN=C(C=Cc2ccc(C(F)(F)F)cc2)C=Cc2ccc(C(F)(F)F)cc2)NC1 [Amidino Hydrazone Stearate, 1,4-pentadien-3-one, 1,5-bis(alpha,alpha,alpha-trifluoro-p-tolyl)-(1,4,5,6-tetrahydro-5,5-dimethyl-2-pyrimidinyl)hydrazone stearate] | 0 (0 control) | 0 (0 control) | 9 (100% control) | 9 (100% control) | 9 (100% control) | 0 (0 control) | 9 (100% control) | 9 (100% control) | 8 (90% control) | % Salt in Oil Layer [3, 8]: 47%; % Amidino Hydrazone in Oil Layer (w/w), Average [3, 8]: 30.1 % (w/w); % Amidino Hydrazone in Oil Layer (w/w) [3, 8]: 29.8 % (w/w) and 30.4 % (w/w) |
| CC1(C)CN=C(NN=C(C=Cc2ccc(C(F)(F)F)cc2)C=Cc2ccc(C(F)(F)F)cc2)NC1 [Amidino Hydrazone Linoleate] | 0 (0 control) | 0 (0 control) | 9 (100% control) | 9 (100% control) | 9 (100% control) | 0 (0 control) | 7 (80% control) | 9 (100% control) | 0 (0 control) | % Salt in Oil Layer [3, 9]: 47%; % Amidino Hydrazone in Oil Layer (w/w), Average [3, 9]: 30.3 % (w/w); % Amidino Hydrazone in Oil Layer (w/w) [3, 9]: 30.3 % (w/w) and 30.4 % (w/w) |
| CC1(C)CN=C(NN=C(C=Cc2ccc(C(F)(F)F)cc2)C=Cc2ccc(C(F)(F)F)cc2)NC1 [Amidino Hydrazone Linolenate] | 0 (0 control) | 0 (0 control) | – | 9 (100% control) | 9 (100% control) | 0 (0 control) | – | – | – | % Salt in Oil Layer [3, 10]: 55%; % Amidino Hydrazone in Oil Layer (w/w), Average [3, 10]: 35.4 % (w/w); % Amidino Hydrazone in Oil Layer (w/w) [3, 10]: 35.9 % (w/w) and 34.8 % (w/w); 3rd Instar Armyworms control rating ([5]; 10 ppm, listed as Amidino Hydrazine Linolenate): 9 (100% control); 1st Instar Tobacco Budworms control rating ([6]; 100 ppm, listed as Amidino Hydrazine Linolenate): 9 (100% control); 1st Instar Tobacco Budworms control rating ([6]; 300 ppm, listed as Amidino Hydrazine Linolenate): 9 (100% control); Aphids control rating ([7]; listed as Amidino Hydrazine Linolenate): 5 (60% control) |
| CC1(C)CN=C(NN=C(C=Cc2ccc(C(F)(F)F)cc2)C=Cc2ccc(C(F)(F)F)cc2)NC1 [Amidino Hydrazone Oleate] | 0 (0 control) | 0 (0 control) | 6 (70% control) | 9 (100% control) | 9 (100% control) | 0 (0 control) | 0 (0 control) | 7 (80% control) | 0 (0 control) | % Salt in Oil Layer [3, 11]: 44%; % Amidino Hydrazone in Oil Layer (w/w), Average [3, 11]: 28.0 % (w/w); % Amidino Hydrazone in Oil Layer (w/w) [3, 11]: 27.8 % (w/w) and 28.1 % (w/w) |
